# Test results reported in patent US12304912B2, “Fused bicyclic RAF inhibitors and methods for use thereof” (Jazz Pharmaceuticals Ireland Limited, priority 2020, dated 2025).
# Assays:
# FeSSIF solubility assay = format: physicochemical; details: fed state simulated intestinal fluid (FeSSIF), thermodynamic from solid, pH 5 acetate buffer, 37° C., read-out: FESSIF Sol
# In short: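 FeSSIF (pH 5 acetate buffer, 1 mL) was added to 1.0 mg solid compound and shaken at 650 rpm and 37 °C for 24 h. After filtration, dissolved compound was quantified by LC-UV against a 250 μM calibration standard.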
# HCT-116 cells = experiment: HCT-116 CellTiter-Glo 3D cell proliferation assay; format: cell-based; details: Homo sapiens, HCT-116; HCT116 cells, 3D proliferation; read-out: 3D HCT116 pGI50 (converted)
# Procedure: HCT-116 CellTiter-Glo 3D Cell Proliferation Assay
# The human HCT-116 colorectal carcinoma cell line (ATCC CCL-247) endogenously expresses the KRAS^G13D mutation, which leads to enhanced survival and proliferative signaling. […] On the first day, HCT-116 cells were harvested, resuspended in growth medium (McCoys5A with Glutamax (Life Technologies 36600021) with 10% heat-inactivated fetal bovine serum (Sigma F9665)), and counted. Cells were plated in 100 μl per well in each well of a Corning 7007 96-well clear round bottom Ultra-Low Attachment plate (VWR 444-1020) to a final density of 1000 cells per well. Cells were seeded for pre- and post-treatment readouts. The cells were then incubated at 37° C. and 5% CO2 for 3 days (72 hours) to allow spheroid formation. After 72 hours, the plate seeded for a pre-treatment read was removed from the incubator to allow equilibration to room temperature for 30 minutes, before CellTitre-Glo® reagent was added to each well. The plates were incubated at room temperature for 5 minutes shaking at 300 rpm, followed by an incubation of 25 minutes on the benchtop before being read on the Envision reader (Perkin Elmer) as described below. On the same day, the cells plated for the post-treatment readout were dosed with compounds to produce a 9-point dose response, where the top concentration was 15 μM and following concentrations were at 1/2 log dilution intervals. These cells were subsequently incubated at 37° C. and 5% CO2 for another 4 days (96 hours). After 4 days, the plate was removed from the incubator to allow equilibration to room temperature for 30 minutes and treated with CellTitre Glo® reagent as stated above. […] The CellTitre Glo® reagent lyses the cells and contains luciferin and a luciferase (Ultra-Glo™ Recombinant Luciferase), which in the presence of ATP and oxygen can produce bioluminescence from luciferin. Therefore, plates were read on an EnVision reader (Perkin Elmer) and luminescence signals were recorded. Cell proliferation was determined on 4 days after dosing relative to the pre-treatment read. All data were analyzed using the Dotmatics or GraphPad Prism software packages. Inhibition of proliferation was assessed by determination of the GI50 value, which was defined as the concentration of compound required to decrease the level of cell proliferation by 50% when compared to DMSO control.
# WiDr cells = experiment: WiDr CellTiter-Glo 3D cell proliferation assay; format: cell-based; details: Homo sapiens; WiDr cells, 3D proliferation; read-out: 3D WiDr pGI50 (converted)
Structure (SMILES),solubility thermodynamic at 24 h (FeSSIF solubility assay) [µg/mL],GI50 (HCT-116 cells) [nM],GI50 (WiDr cells) [nM]
O=C(CN1CCCC1)Nc1cc(Oc2ccc3c(c2)CC(c2nc(-c4ccccc4)c[nH]2)CO3)ccn1 (stereo not drawn) [Compound 152],997,832,5620
O=C(Cn1ccnc1)Nc1cc(Oc2ccc3c(c2)CC(c2nc(-c4ccccc4)c[nH]2)CO3)ccn1 (stereo not drawn) [Compound 144],318,100,380
Cc1ccc(-c2c[nH]c(C3COc4ccc(Oc5ccnc6c5CCC(=O)N6)cc4C3)n2)s1 (stereo not drawn) [Compound 110],8.5,70.8,200
"O=C1CCc2c(Oc3ccc4c(c3)CC(c3nc(C5CCOCC5)c[nH]3)CO4)ccnc2N1 (stereo not drawn) [Compound 132, 5-[3-(4-tetrahydropyran-4-yl-1H-imidazol-2-yl)chroman-6-yl]oxy-3,4-dihydro-1H-1,8-naphthyridin-2-one]",41.9,661,1150
"CCn1nc(C)cc1-c1c[nH]c(C2COc3ccc(Oc4ccnc5c4CCC(=O)N5)cc3C2)n1 (stereo not drawn) [Compound 124, 5-[3-[4-(2-ethyl-5-methyl-pyrazol-3-yl)-1H-imidazol-2-yl]chroman-6-yl]oxy-3,4-dihydro-1H-1,8-naphthyridin-2-one]",3,724,1450
O=C(CN1CCOCC1)Nc1cc(Oc2ccc3c(c2)CC(c2nc(-c4ccccc4)c[nH]2)CO3)ccn1 (stereo not drawn) [Compound 149],200,851,2240
O=C(CN1CC(O)C1)Nc1cc(Oc2ccc3c(c2)CC(c2nc(-c4ccccc4)c[nH]2)CO3)ccn1 (stereo not drawn) [Compound 153],336,427,5620
"CC(C)(C)CCc1c[nH]c(C2COc3ccc(Oc4ccnc5c4CCC(=O)N5)cc3C2)n1 (stereo not drawn) [Compound 115, 5-[3-[4-(3,3-dimethylbutyl)-1H-imidazol-2-yl]chroman-6-yl]oxy-3,4-dihydro-1H-1,8-naphthyridin-2-one]",129,67.6,38
"Cn1nc(C2CC2)cc1-c1c[nH]c(C2COc3ccc(Oc4ccnc5c4CCC(=O)N5)cc3C2)n1 (stereo not drawn) [Compound 125, 5-[3-[4-(5-cyclopropyl-2-methyl-pyrazol-3-yl)-1H-imidazol-2-yl]chroman-6-yl]oxy-3,4-dihydro-1H-1,8-naphthyridin-2-one]",22,1120,15100
"O=C1CCc2c(Oc3ccc4c(c3)CC(c3nc(-c5ccnc(C(F)F)c5)c[nH]3)CO4)ccnc2N1 (stereo not drawn) [Compound 101, 5-[3-[4-[2-(difluoromethyl)-4-pyridyl]-1H-imidazol-2-yl]chroman-6-yl]oxy-3,4-dihydro-1H-1,8-naphthyridin-2-one]",5.7,85.1,309
CC1CC1C(=O)Nc1cc(Oc2ccc3c(c2)CC(c2nc(-c4ccccc4)c[nH]2)CO3)ccn1 (stereo not drawn) [Compound 157],116,263,661
O=C(Nc1cc(Oc2ccc3c(c2)CC(c2nc(-c4ccccc4)c[nH]2)CO3)ccn1)C1CC1 (racemic) [Compound 136],17.1,47.9,170
"CC(=O)Nc1cc(Oc2ccc3c(c2)CC(c2nc(-c4ccccc4)c[nH]2)CO3)ccn1 (stereo not drawn) [Compound 156, N-[4-[3-(4-phenyl-1H-imidazol-2-yl)chroman-6-yl]oxy-2-pyridyl]acetamide]",296,89.1,269
O=C(Cn1cncn1)Nc1cc(Oc2ccc3c(c2)CC(c2nc(-c4ccccc4)c[nH]2)CO3)ccn1 (stereo not drawn) [Compound 154],171,61.7,661
O=C1CCc2c(Oc3ccc4c(c3)CN(c3nc5cc(C(F)(F)F)ccc5[nH]3)CC4)ccnc2N1 [Compound 160],3,617,2090
"CN1CCN(CC(=O)Nc2cc(Oc3ccc4c(c3)CC(c3nc(-c5ccccc5)c[nH]3)CO4)ccn2)CC1 (stereo not drawn) [Compound 146, 2-(4-methylpiperazin-1-yl)-N-[4-[3-(4-phenyl-1H-imidazol-2-yl)chroman-6-yl]oxy-2-pyridyl]acetamide]",404,380,813
CCc1cc(-c2c[nH]c(C3COc4ccc(Oc5ccnc6c5CCC(=O)N6)cc4C3)n2)n(C)n1 (stereo not drawn) [Compound 111],70,316,1020
"CN1CCC(C(=O)Nc2cc(Oc3ccc4c(c3)CC(c3nc(-c5ccccc5)c[nH]3)CO4)ccn2)CC1 (stereo not drawn) [Compound 147, 1-methyl-N-[4-[3-(4-phenyl-1H-imidazol-2-yl)chroman-6-yl]oxy-2-pyridyl]piperidine-4-carboxamide]",528,1380,1380
COc1ccsc1-c1c[nH]c(C2COc3ccc(Oc4ccnc5c4CCC(=O)N5)cc3C2)n1 (stereo not drawn) [Compound 123],156,40.7,53.7
"O=C(Nc1cc(Oc2ccc3c(c2)CC(c2nc(-c4ccccc4)c[nH]2)CO3)ccn1)C1CC1(F)F (stereo not drawn) [Compound 137, 2,2-difluoro-N-[4-[3-(4-phenyl-1H-imidazol-2-yl)chroman-6-yl]oxy-2-pyridyl]cyclopropanecarboxamide]",73.9,70.8,126
CC(C)CCc1c[nH]c(C2COc3ccc(Oc4ccnc5c4CCC(=O)N5)cc3C2)n1 (stereo not drawn) [Compound 116],311,66.1,126
"O=C(Nc1nccc(Oc2ccc3c(c2)CC(c2nc(-c4ccccc4)c[nH]2)CO3)n1)C1CC1 (stereo not drawn) [Compound 148, N-[4-[3-(4-phenyl-1H-imidazol-2-yl)chroman-6-yl]oxypyrimidin-2-yl]cyclopropanecarboxamide]",104,490,1200
"Cc1cc(-c2c[nH]c(C3COc4ccc(Oc5ccnc6c5CCC(=O)N6)cc4C3)n2)n(C)n1 (stereo not drawn) [Compound 106, 5-[3-[4-(2,5-dimethylpyrazol-3-yl)-1H-imidazol-2-yl]chroman-6-yl]oxy-3,4-dihydro-1H-1,8-naphthyridin-2-one]",28.1,437,1550
"Cc1c[nH]c(-c2cc(Oc3ccc4c(c3)CC(c3nc(-c5ccccc5)c[nH]3)CO4)ccn2)n1 (stereo not drawn) [Compound 143, 2-(4-methyl-1H-imidazol-2-yl)-4-[3-(4-phenyl-1H-imidazol-2-yl)chroman-6-yl]oxy-pyridine]",44.7,741,1510
"O=C(Nc1cc(Oc2ccc3c(c2)CC(c2nc(-c4ccc(F)cc4)c[nH]2)CO3)ccn1)C1CC1 (stereo not drawn) [Compound 155, N-[4-[3-[4-(4-fluorophenyl)-1H-imidazol-2-yl]chroman-6-yl]oxy-2-pyridyl]cyclopropanecarboxamide]",124,100,631
